# Data from the supplement of paper PMC10307832.
# Legend:
# Assay in all cases: relative viability (nuclei count vs DMSO), 5 days (fraction); higher = more cells survive
# [1] = compound: CC1CC(=O)N(C2=CN=C(N=C2N1C3CCCC3)NC4=C(C=C(C=C4)C(=O)NC5CCN(CC5)C)OC)C [NPK76-II-72-1] + Nc1nc2[nH]cc(CCc3ccc(C(=O)N[C@@H](CCC(=O)O)C(=O)O)cc3)c2c(=O)[nH]1 [Pemetrexed] (partner 0.2 µM)
# In short: (§1)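 Values are medians from duplicate plates. Each reflects relative viability, defined as the nuclei count of treated wells over that of vehicle wells. Lung cancer cell lines in 1536-well plates were pin-tool dosed one day after seeding with one drug alone or with a fixed anchor-drug dose plus five library-drug doses (not always all listed) in √10 steps, then fixed, stained and imaged at 4× after 5 days.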
# [2] = compound: CC1CC(=O)N(C2=CN=C(N=C2N1C3CCCC3)NC4=C(C=C(C=C4)C(=O)NC5CCN(CC5)C)OC)C [NPK76-II-72-1] + Cc1nc(Nc2ncc(C(=O)Nc3c(C)cccc3Cl)s2)cc(N2CCN(CCO)CC2)n1 [Dasatinib] (partner 0.075 µM)
# In short: as §1
# [3] = compound: CC1CC(=O)N(C2=CN=C(N=C2N1C3CCCC3)NC4=C(C=C(C=C4)C(=O)NC5CCN(CC5)C)OC)C [NPK76-II-72-1] + C[C@]1(O)C[C@@H](c2nc(-c3ccc4ccc(-c5ccccc5)nc4c3)c3c(N)nccn32)C1 [Linsitinib] (partner 1 µM)
# In short: as §1
# BI-2536 + Lapatinib = compound: CC[C@@H]1C(=O)N(C)c2cnc(Nc3ccc(C(=O)NC4CCN(C)CC4)cc3OC)nc2N1C1CCCC1 [BI-2536] + CS(=O)(=O)CCNCc1ccc(-c2ccc3ncnc(Nc4ccc(OCc5cccc(F)c5)c(Cl)c4)c3c2)o1 [Lapatinib] (partner 2 µM)
# In short: as §1
Cell Line,relative viability ([1]; first compound 0.01 µM),relative viability ([1]; first compound 0.03162 µM),relative viability ([1]; first compound 0.1 µM),relative viability ([1]; first compound 0.3162 µM),relative viability ([1]; first compound 1 µM),relative viability ([2]; first compound 0.01 µM),relative viability ([2]; first compound 0.03162 µM),relative viability ([2]; first compound 0.1 µM),relative viability ([2]; first compound 0.3162 µM),relative viability ([2]; first compound 1 µM),relative viability ([3]; first compound 0.01 µM),relative viability ([3]; first compound 0.03162 µM),relative viability ([3]; first compound 0.1 µM),relative viability ([3]; first compound 0.3162 µM),relative viability ([3]; first compound 1 µM),relative viability (BI-2536 + Lapatinib; first compound 0.01 µM),relative viability (BI-2536 + Lapatinib; first compound 0.03162 µM),relative viability (BI-2536 + Lapatinib; first compound 0.1 µM),relative viability (BI-2536 + Lapatinib; first compound 0.3162 µM),relative viability (BI-2536 + Lapatinib; first compound 1 µM)
NCI-H1993,0.515,0.566,0.474,0.566,0.644,0.442,0.654,0.619,0.548,0.759,0.728,0.768,0.576,0.657,0.778,0.81,0.828,0.533,0.566,0.555
NCI-H1734,0.428,0.402,0.413,0.418,0.416,0.513,0.493,0.455,0.437,0.509,0.896,0.899,0.883,0.884,0.904,1.04,0.81,0.427,0.205,0.206
HOP-62,0.291,0.374,0.296,0.245,0.32,0.585,0.653,0.633,0.672,0.64,0.908,1.05,0.922,1.05,0.89,0.965,0.99,0.705,0.142,0.135
LOU-NH91,0.348,0.402,0.381,0.44,0.35,0.52,0.498,0.528,0.401,0.612,0.941,0.932,0.984,0.681,1.04,0.794,0.756,0.663,0.284,0.291
NCI-H2228,0.307,0.359,0.33,0.339,0.343,0.367,0.547,0.495,0.566,0.619,0.428,0.572,0.763,0.66,0.736,1.38,0.629,0.207,0.165,0.166
PC-14,0.124,0.126,0.125,0.123,0.162,0.271,0.238,0.272,0.227,0.293,0.927,1.1,0.938,0.874,1.06,0.323,0.408,0.342,0.0746,0.0774
NCI-H1437,0.319,0.305,0.307,0.305,0.352,0.416,0.388,0.321,0.33,0.417,0.973,1.08,0.986,0.802,1.07,0.784,0.718,0.237,0.116,0.122
NCI-H460,0.061,0.0655,0.0657,0.0656,0.0639,0.512,0.543,0.497,0.458,0.501,0.721,0.787,0.842,0.762,0.895,1.04,0.257,0.206,0.0105,0.011
NCI-H1666,0.844,0.802,0.88,0.78,0.917,0.705,0.841,0.723,0.832,0.912,0.78,0.815,0.783,0.8,0.79,0.779,0.582,0.29,0.231,0.262
NCI-H1651,0.534,0.61,0.611,0.527,0.6,0.386,0.46,0.413,0.429,0.419,0.947,0.972,1.09,0.867,1.05,0.754,0.8,0.118,0.0889,0.0915
NCI-H1755,0.385,0.405,0.464,0.544,0.405,0.377,0.448,0.429,0.357,0.497,0.972,1,0.947,1.01,0.985,0.968,0.982,0.498,0.204,0.272
NCI-H661,0.953,0.907,0.893,0.902,0.954,0.825,0.914,0.94,0.729,1.12,0.536,0.557,0.546,0.525,0.519,0.498,0.543,0.398,0.224,0.179
HARA,0.293,0.28,0.256,–,0.195,0.254,0.233,0.168,0.237,0.219,1.03,0.921,0.929,0.77,1.03,0.703,0.814,0.569,0.0764,0.0911
NCI-H596,0.522,0.503,0.485,0.482,0.462,0.544,0.668,0.551,0.591,0.557,1.02,1.14,1.06,1.13,1.09,1.17,1.05,0.571,0.346,0.273
NCI-H1563,0.581,0.767,0.839,0.604,0.767,0.465,0.416,0.469,0.461,0.425,1.07,1.29,1.11,1.16,1.2,0.906,0.938,0.832,0.568,0.638
NCI-H23,0.52,0.915,0.597,0.71,0.777,0.752,0.771,0.565,0.859,0.776,0.546,0.701,–,0.592,0.552,1.07,0.773,0.168,0.171,0.147
LCLC-97TM1,0.178,0.196,0.164,0.158,0.155,0.896,0.917,0.822,0.785,0.8,–,0.16,0.167,0.192,0.156,0.919,0.737,0.114,0.13,0.117
EPLC-272H,0.338,0.303,0.303,0.311,0.335,0.318,–,0.332,0.251,0.357,0.973,1.15,1.28,1.05,1.18,0.894,0.828,–,0.483,0.11
NCI-H1915,0.459,0.527,0.452,0.475,0.533,0.324,0.352,0.324,0.351,0.302,1.11,1.1,1.11,1.07,1.14,0.882,0.965,0.752,0.62,0.0794
NCI-H2405,1.04,1.01,0.956,1.08,1.06,0.236,0.209,0.194,0.213,0.212,0.88,1.01,0.905,0.819,1.08,1.01,0.97,0.301,0.146,0.448
NCI-H322M,0.606,0.566,0.601,0.539,0.595,0.268,0.241,0.249,0.234,0.256,0.853,1.1,0.805,0.961,0.976,0.545,0.483,0.59,0.673,0.251
NCI-H1395,1.02,0.842,0.972,0.856,0.881,0.433,0.36,0.424,0.417,0.369,1.08,1.17,1.22,1.13,1.22,0.868,0.905,0.415,0.353,0.733
NCI-H358,0.179,0.186,0.184,–,0.21,0.162,0.14,0.156,–,0.149,0.742,0.773,0.854,0.412,0.784,0.454,0.312,0.174,0.161,0.182
NCI-H838,0.277,0.251,0.263,0.237,0.245,0.28,0.247,0.253,0.265,0.292,0.935,1.05,1.11,1.01,1.03,1.04,0.877,0.155,0.101,0.133
CAL-12T,0.927,1.1,1.14,0.943,1.5,0.369,0.379,0.364,0.319,0.391,0.721,1.07,0.737,0.736,0.808,0.646,0.799,0.582,0.186,0.177
